Test results reported in PubChem BioAssay AID463206 (Broad Institute, 2010).
Activity calls are given as the source filed them.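 How the source made its calls: active means caspase luminescence falls with dose and the half-maximal concentration AC50 from the fitted curve is at or below a set limit; inconclusive means flat fit at 30 to 70% signal loss, or invalid fit; inactive means AC50 above the limit, or signal rises instead.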

tested on: INS-1E cytokine-induced caspase-3/7, Caspase-Glo luminescence, 48 h; test: suppression of cytokine-driven beta-cell apoptosis – INS-1E rat cells, luminescence, orthogonal assay for beta-cell apoptosis protection project, dose response (AID 463206)

SMILES | AC50
COc1ccccc1C(CCNCc1ccc(N(C)C)cc1)c1ccc(OC(C)C)cc1 (stereo not given) | > 26 µM (inactive)
COc1ccc(CNCCC(c2ccc(OC(C)C)cc2)C(C)C)cc1OC (stereo not given) | > 26 µM (inactive)
CC(C)OCCCNc1ncnc2c1[nH]c1ccc(F)cc12 | > 26 µM (inactive)
COc1cccc(/C=N/Nc2ccc([N+](=O)[O-])cn2)c1O | > 26 µM (inactive)
O=C(N/N=C\c1cc(Cl)ccc1O)c1ccc(S(=O)(=O)N2CCCCC2)cc1 | > 26 µM (inactive)
c1cc(-c2noc(CC3CCCCC3)n2)ccn1 | > 26 µM (inactive)
CCN(Cc1ccccc1)C(c1ccc(C(F)(F)F)cc1)c1nnnn1C(C)(C)C (stereo not given) | > 26 µM (inactive)
CSc1nc(-c2ccccc2)nc(C(Cl)Cl)n1 | 2.7 µM
Cc1cc(C(=O)CSc2nc3ccccc3c(=O)n2C)c(C)n1Cc1ccc2c(c1)OCO2 | > 26 µM (inactive)
COc1ccc(-n2c(-c3ccc(Br)cc3)c[n+]3c2CCCCC3)cc1 | > 26 µM (inactive)
c1ccc(-c2csc3ncnc(NCC4COc5ccccc5O4)c23)cc1 (stereo not given) | > 26 µM (inactive)
Clc1cc2cccnc2c2ncccc12 | > 26 µM (inactive)
Cc1ccc(S(=O)(=O)N2CCOCC2)cc1C(=O)Nc1nc(-c2ccccn2)cs1 | > 26 µM (inactive)
O=S(=O)(NCC1CCCO1)c1ccc(-c2ccc(S(=O)(=O)NCC3CCCO3)cc2)cc1 (stereo not given) | > 26 µM (inactive)
N/C(=N\OC(=O)c1cccc(Cn2cc(C(F)(F)F)ccc2=O)c1)c1ccc(Cl)cc1 | > 26 µM (inactive)
O=C(Nc1nc(-c2ccccc2)cs1)c1ccccc1NS(=O)(=O)c1ccc(F)cc1 | > 26 µM (inactive)
O=C1C=C(Nc2ccccc2)C(=O)c2ccccc21 | > 26 µM (inactive)
CCOC(=O)C1=C(c2ccc(OC)cc2)C(=O)c2ccccc2C1=O | > 26 µM (inactive)
O=C1C(C2=NC(c3ccccn3)C3C(=O)N(c4ccc(OC(F)(F)F)cc4)C(=O)C23)=C(O)c2ccccc21 (stereo not given) | > 26 µM (inactive)
Cc1cc(C)n(-c2nc(Nc3ccccc3C(F)(F)F)nc(-n3nc(C)cc3C)n2)n1 | > 26 µM (inactive)
c1ccc(/N=C2\N=C(Nc3ccccn3)c3ccccc32)nc1 | > 26 µM (inactive)
CC(C)(C)c1cc[n+](C2=C([O-])c3ccccc3C(=O)/C2=N\S(=O)(=O)c2ccccc2)cc1 | > 26 µM (inactive)
Oc1ccc(Br)cc1-c1cc(-c2ccc(Cl)cc2)n[nH]1 | > 26 µM (inactive)
Cn1c(NN=O)nc2ccccc21 | > 26 µM (inactive)

SMILES | AC50
COc1ccc(C2/C=C\CN(C(=O)Nc3ccc(C(F)(F)F)cc3)CC(=O)N2Cc2ccc(F)cc2)cc1 (stereo not given) | > 26 µM (inactive)
COc1ccc(-c2ccc3c(c2)S(=O)(=O)c2cccc(C(=O)NCCOc4ccccc4Cl)c2C3=O)cc1OC | > 26 µM (inactive)
O=C(N/N=C/c1cc([N+](=O)[O-])ccc1O)c1cccc(NC(=O)c2cccc(Cl)c2)c1 | > 26 µM (inactive)
CCN(CC)CCNC(=O)c1ccc2c(c1NCCO)C(=O)c1ccccc1C2=O | > 26 µM (inactive)
CCOC(=O)CS(=O)(=O)c1nc(-c2ccccc2)cc(C(F)(F)F)n1 | > 26 µM (inactive)
CCCCCCSc1cc(-c2nc3ccc(C)cn3c2NCCCC)ccc1OC | > 26 µM (inactive)
COc1cccc(/C=N/Nc2nc(Nc3ccccc3)nc(-n3nc(C)cc3C)n2)c1O | > 26 µM (inactive)
COc1ccc(CC(=O)Nc2cccc(S(=O)(=O)N3CCCCCC3)c2)cc1OC | > 26 µM (inactive)
Cc1ccccc1Oc1cc(NC(=O)CCCn2nc(C)c([N+](=O)[O-])c2C)cc([N+](=O)[O-])c1 | > 26 µM (inactive)
O=C1/C(=C\c2cccnc2)CN(Cc2ccccc2)C/C1=C\c1cccnc1 | > 26 µM (inactive)
CC1=C(C)/C(=N\OS(=O)(=O)c2ccc(C)cc2)C=CC1=O | > 26 µM (inactive)
Cc1ccc2c(c1)N(C)/C(=C/c1cccc[n+]1CCO)S2 | > 26 µM (inactive)
O=C(N/N=C/c1c(O)ccc2ccccc12)c1cccnc1 | > 26 µM (inactive)
O=C(Nc1ccc(Cl)cc1)Nc1nnc(CSCc2ccc(Cl)cc2)s1 | > 26 µM (inactive)
Cc1nc2ccccc2cc1OCc1ccc(F)cc1 | > 26 µM (inactive)
C=CCc1c(C)nc(C)nc1N/N=C/c1ccc(N(C)C)cc1 | > 26 µM (inactive)
CCN1CCN(c2ccc(S(=O)(=O)N3CCCCC3)cc2NC(=O)c2ccc([N+](=O)[O-])s2)CC1 | > 26 µM (inactive)
COC(=O)c1sccc1S(=O)(=O)Nc1ccc(N2CCCCC2)cc1 | > 26 µM (inactive)
COc1cc(C(=O)N/N=C(\C)c2ccccn2)cc(OC)c1OC | > 26 µM (inactive)
O=C(NCc1ccncc1)c1cc(-c2ccc(Cl)cc2)oc1C(F)(F)F | > 12 µM (inactive)
N=c1c2c(n(Cc3ccc(Cl)cc3Cl)c3c1CCC3)CCCC2 | > 26 µM (inactive)
CN1C2CCC1/C(=C/c1ccccn1)C(=O)/C2=C\c1ccccn1 | > 26 µM (inactive)
O=C(NCC(c1ccco1)N1CCCC1)c1ccc(Cl)c(S(=O)(=O)N2CCc3ccccc32)c1 (stereo not given) | > 26 µM (inactive)
O=C(NC(=S)NNC(=O)c1cnccn1)c1ccc(F)cc1 | > 26 µM (inactive)

SMILES | AC50
Cc1ccc(C(C)C)c(OCC(O)CN2CCc3ccccc3C2)c1 (stereo not given) | > 12 µM (inactive)
CCOc1ccc(-c2c[n+]3c(n2-c2ccccc2)CCCCC3)cc1 | > 26 µM (inactive)
CCCCCCCCCCn1ccc(=N)cc1 | > 26 µM (inactive)
O=C1c2ccccc2C2=Nc3ccccc3SC(c3ccc(Cl)cc3)C12 (stereo not given) | > 26 µM (inactive)
Nc1nonc1-n1nnc(C(=O)N/N=C/c2cc(Br)ccc2O)c1CNc1ccccc1 | > 26 µM (inactive)
CN1/C(=C\C(=O)CN2C(=O)NC3(CCCCCC3)C2=O)C(C)(C)c2ccccc21 | > 12 µM (inactive)
O=C(NCc1cccnc1)/C(=C/c1ccc(-c2cccc(Cl)c2)o1)S(=O)(=O)c1ccccc1 | > 26 µM (inactive)
O=C(CC(O)(C(F)(F)F)C(F)(F)F)Nc1ccc(Cl)c(Cl)c1 | > 26 µM (inactive)
O=C(NCc1cccnc1)c1cc(-c2ccco2)on1 | > 26 µM (inactive)
FC(F)(F)c1ccccc1NC(=S)N1CCc2ccccc2C1 | > 26 µM (inactive)
CCC(=O)NC(c1ccccc1OC)c1ccc2cccnc2c1O (stereo not given) | > 26 µM (inactive)
CC(C)(C)Sc1ccc2nc3c(n2c1)CCCC3 | > 26 µM (inactive)
O=C(c1cc(-c2ccccc2Cl)nc2ccccc12)N1CCN(c2ccccn2)CC1 | 3.83 µM
CC(C)(C)OC(=O)N1CCC(CNC(=O)c2cccs2)CC1 | > 26 µM (inactive)
CC(=O)c1ccc(N2CCN(S(=O)(=O)c3ccc4c(c3)CC(C)N4C(C)=O)CC2)cc1 (stereo not given) | > 26 µM (inactive)
CCS(=O)(=O)c1ncc(Cl)c(C(=O)Nc2ccccc2OC)n1 | > 26 µM (inactive)
Cc1ccc(-c2c[n+]3c(n2-c2ccccc2)CCC3)cc1 | > 26 µM (inactive)
Cc1cc([N+](=O)[O-])c2ccccc2[n+]1[O-] | > 26 µM (inactive)
CCCCCCn1c2c(c(=N)c3c1CCC3)CCC2 | > 26 µM (inactive)
CC(C)(C)n1ncc2c(=O)n(Cc3cccc(Cn4cnc5c(cnn5C(C)(C)C)c4=O)c3F)cnc21 | > 26 µM (inactive)
CC1(C)C(C=C(Cl)Cl)C1C(=O)Nc1ccc([N+](=O)[O-])cc1 (stereo not given) | > 26 µM (inactive)
Cc1ccn2c(Nc3ccccc3C)c(-c3ccccn3)nc2c1 | > 26 µM (inactive)
C=C(C)C(=O)OCC(O)COc1ccc(C(C)(C)c2ccc(OCC(O)COC(=O)C(=C)C)cc2)cc1 (stereo not given) | > 26 µM (inactive)
O=C(Nc1cccc(Cl)c1)Nc1nnc(-c2ccncc2)s1 | > 26 µM (inactive)

SMILES | AC50
COc1ccccc1N1C(C)=CC(=C(C#N)c2nc3ccccc3s2)C=C1C | > 26 µM (inactive)
O=C(CCSc1nc2ccccc2s1)N/N=C/c1c(O)ccc2ccccc12 | > 26 µM (inactive)
COc1ccc(O)c(/C=N/NC(=O)c2ccc(OCc3cccc(Br)c3)cc2)c1 | > 26 µM (inactive)
CCCCCCCNC1=CC(=O)CC(c2ccccc2)C1 (stereo not given) | > 12 µM (inactive)
O=C(/C(=C/c1ccc(Cl)cc1)c1nc2ccccc2[nH]1)c1ccccc1 | > 26 µM (inactive)
COc1ccccc1NC(=O)c1cc2cc(Br)ccc2cc1O | > 26 µM (inactive)
O=c1[nH]c(=O)n(Cc2ccco2)c2c1C(C(F)(F)F)(C(F)(F)F)N=C(c1ccc(F)cc1)N2 | > 26 µM (inactive)
CCCCCCCCn1c2c(c(=N)c3c1CCC3)CCCC2 | > 26 µM (inactive)
Cc1ccc(S(=O)(=O)/N=C2\C=C(Nc3cccc(C(=O)O)c3)C(=O)c3ccccc32)c(C)c1 | > 26 µM (inactive)
O=C(CNC(=O)c1ccccc1)N/N=C/c1cc(Br)ccc1O | > 26 µM (inactive)
C/C(=N\NC(=O)c1cc(C2CC2)nc2ccccc12)c1ccc(O)cc1O | > 26 µM (inactive)
Cc1ccc2ccc3ccc(C)nc3c2n1 | > 26 µM (inactive)
Oc1cc(-c2ccc(N3CCCCC3)nc2)cc2cccnc12 | > 26 µM (inactive)
CCOCCCNC(=O)c1c[nH]c2cc(OC)ccc2c1=O | > 26 µM (inactive)
C=CC[n+]1c(/C=C2\C=Cc3cc(C)ccc3N2CC)ccc2ccccc21 | > 26 µM (inactive)
Oc1ccc(CCNc2ncnc3ccc(Cl)cc23)cc1 | > 26 µM (inactive)
Cc1ccc(C2CC(c3cccc(Br)c3)n3nc(N)nc3N2)cc1 (stereo not given) | > 26 µM (inactive)
CCOC(=O)/C(=C\c1ccc([N+](=O)[O-])cc1)C(=O)c1cc(C(C)=O)c(Nc2ccccc2)s1 | > 26 µM (inactive)
COc1ccc(C)cc1NS(=O)(=O)c1ccc(NC(=O)CN(c2cc([N+](=O)[O-])ccc2C)S(C)(=O)=O)cc1 | > 26 µM (inactive)
CCCCCCCCCCOC(=O)Cn1c(COc2ccc(C)cc2)[n+](C)c2ccccc21 | > 26 µM (inactive)
O=[N+]([O-])c1cccnc1N/N=C/c1ccccc1O | > 26 µM (inactive)
O=C(CNC(=O)c1ccccc1O)N/N=C/c1cc(Br)ccc1OC(=O)/C=C/c1ccco1 | > 26 µM (inactive)
CC(C)(C)OC(=O)NCc1ccc(NC(=O)c2nc[nH]c2C(=O)NCCCCNC(=O)c2[nH]cnc2C(=O)Nc2ccc(CNC(=O)OC(C)(C)C)cc2)cc1 | > 26 µM (inactive)
